Experimental data taken from US10351566B2, “Therapeutic compounds for pain and synthesis thereof” (priority 2015, dated 2019).
Marks after values point to notes of the source that are not given here.

How the values were obtained:
Type in all cases: in vivo
[1] = test system: Taxol-induced neuropathic pain; assay: Taxol-induced neuropathic pain in mice, SC administration
Experimental: (§1) Study outline in brief: Animals were dosed daily with Taxol for a period of 8 consecutive days (Day 0 to Day 7). On study day 8, prior to drug dosing, the decrease in withdrawal force (tactile allodynia) was verified by applying the von Frey test. After assigning the animals to their treatment groups, the animals were treated daily for a period of 5 days with either vehicle or Formula 1 at different doses. Gabapentin at a dose of 150 mg/kg was dosed only on days of testing (day 8 and day 14).
Response to heat stimuli was assessed using the hotplate apparatus set at 50ΥC. […] At baseline prior to Taxol dosing, the animals' response time to heat was 28.10±1.60 sec (vehicle-treated group). […] However, it is interesting to note that the beneficial activity of Formula 1 on heat hyperalgesia was more noticeable on study day 14, following repeated daily dosing of the compound, than on study day 8 following a single dose (Table 6).

[2] = test system: CCI-induced neuropathic pain; assay: Chronic constriction injury (CCI) model in mice, SC route; conditions: for Dose of maximum activity / Duration of activity at maximum effect / Level of activity (% of maximum effect-baseline) / Peak of activity (T): CCl model, SC, mice
Experimental: Study outline in brief: The sciatic nerve of mice was exposed under anesthesia, and 3 loose ligations were placed around the nerve. Animals were allowed to recover for 3 days. Tactile allodynia (von Frey testing) and thermal (hot at 50±1° C. and cold at 2±1° C.) hyperalgesia were then assessed. Animals that experienced tactile allodynia were assigned to their treatment groups (vehicle, gabapentin and Formula 1 at different doses). Animals were subsequently treated daily for a period of 5 days with either vehicle or Formula 1 at different doses. Gabapentin at a dose of 150 mg/kg was dosed only on days of testing (day 3 and day 7).

[3] = test system: Taxol-induced neuropathic pain; assay: Taxol-induced neuropathic pain in mice, oral route
Experimental: as §1
The activity of Formula 1 following oral administration was assessed using the Taxol model (see Study Outline in section 7.1). […] Gabapentin dosed at 150 mg/kg was active for a period of 4 h post-dosing.

[4] = test system: CCI-induced neuropathic pain; assay: CCI model in mice, IP route; conditions: CCl model
From the text: IP route of administration was used for initial proof of principle studies with Formula 1. However, the chosen route of administration in most of the studies conducted with Formula 1 was either SC or PO. A brief protocol outline is provided in each section, for the purpose of understanding the results without elaborating on all the detailed procedures.
Table 7 summarizes the activity of Formula 1 in mice models of neuropathic pain following repeated daily administration using different routes of administration. […] Treatment with Formula 1 show activity without CNS effect.

NCC1(CC(=O)O)CCCCC1 [Gabapentin, gabapentin, reference compound]
response time to heat (50° C.), Mean ([1]; 150 mg/kg, Day 0 Pre-Taxol): 28.5 s
response time to heat (50° C.), Mean ([1]; 150 mg/kg, Day 8, 1 h): 18.9* sec
response time to heat (50° C.), Mean ([1]; 150 mg/kg, Day 8, 2 h): 22.5* sec
response time to heat (50° C.), Mean ([1]; 150 mg/kg, Day 8, 4 h): 16.7 s
response time to heat (50° C.), Mean ([1]; 150 mg/kg, Day 8, 6 h): 13.8 s
response time to heat (50° C.), Mean ([1]; 150 mg/kg, Day 8 Pre-dosing): 11.1 s
response time to heat (50° C.), Mean ([1]; 150 mg/kg, Day 14, 1 h): 25.1* sec
response time to heat (50° C.), Mean ([1]; 150 mg/kg, Day 14, 2 h): 25.0 s
response time to heat (50° C.), Mean ([1]; 150 mg/kg, Day 14, 4 h): 25.1* sec
response time to heat (50° C.), Mean ([1]; 150 mg/kg, Day 14, 6 h): 18.7* sec
response time to heat (50° C.), Mean ([1]; 150 mg/kg, Day 14 Pre-dosing): 11.2 s
response time to heat (50° C.), Mean ([1]; 150 mg/kg, Day 17, No dosing): 11.5 s
period of increase in withdrawal force (von Frey) ([1]; Taxol mice, 150 mg/kg): 4 h
Dose of maximum activity ([1]; Taxol model, SC, mice): 150 mg/kg
Duration of activity at maximum effect ([1]; Taxol model, SC, mice): 4 H
Level of activity (% of maximum effect-baseline) ([1]; Taxol model, SC, mice): 100%
Peak of activity (T) ([1]; Taxol model, SC, mice): 2-4 H
response time to cold plate ([2]; CCI mice, 150 mg/kg): increased the response time of the animals to values that were higher than the baseline value
withdrawal force (von Frey) ([2]; CCI mice, 150 mg/kg): significant, but not complete, reversal
Dose of maximum activity ([2]; first SC line): 150 mg/kg
Duration of activity at maximum effect ([2]; first SC line): 4-6 H
Level of activity (% of maximum effect-baseline) ([2]; first SC line): 64%
Peak of activity (T) ([2]; first SC line): 2-3 H
Level of activity (% of maximum effect-baseline) ([2]; second SC line (readout not given)): >100%
Dose of maximum activity ([2]; second SC line): 150 mg/kg
Duration of activity at maximum effect ([2]; second SC line): 4-6 H
Peak of activity (T) ([2]; second SC line): 2-3 H
period of activity post-dosing ([3]; Taxol mice, 150 mg/kg): 4 h
Dose of maximum activity ([3]; Taxol model, PO, mice): 150 mg/kg
Duration of activity at maximum effect ([3]; Taxol model, PO, mice): 4 H
Level of activity (% of maximum effect-baseline) ([3]; Taxol model, PO, mice): 100%
Peak of activity (T) ([3]; Taxol model, PO, mice): 2-4 H
Dose of maximum activity [4]: 150 mg/kg
Duration of activity at maximum effect [4]: 4-6 H
Peak of activity (T) [4]: 2-3 H
Level of activity (% of maximum effect-baseline) ([4]; repeated daily administration): 66%
